Results: patent publication US11834663B2, “Fibrotic treatment” (Monash University, priority 2015, dated 2023)

How the values were obtained:
[1] = test system: thoracic aortic sections from Ang II-infused WT mice; test: Angiotensin II infusion prevention model: aortic fibrosis and inflammation markers (picrosirius red, immunofluorescence); assay type: in vivo, mouse
Description: (§1) There are 8 different sets of in vivo experiments in this study: • A) Phenotypic characterisation of the heart and blood vessels in global IRAP knockout mice and their WT controls treated for 4 weeks with Angiotensin (Ang) II (800 ng/kg/min; s.c.) where mouse hearts and blood vessels were compared to tissue obtained from young WT and IRAP^−/− mice treated with saline. • B) Prevention of Ang II-induced changes in the cardiovascular system following IRAP inhibitor treatment. In the prevention model, WT mice were treated with Ang II (800 ng/kg/min; s.c.)±the IRAP inhibitor (HFI-419; 500 ng/kg/min for 28 days) or HFI-vehicle (1 DMSO:3 HBC). • C) Phenotypic characterisation of the aged heart, kidney and blood vessels in the global IRAP knockout mice where aged WT and IRAP^−/− mouse hearts, kidneys and blood vessels were compared to tissue obtained from young WT and IRAP^−/− mice. • D) Reversal of the age-induced changes in the cardiovascular system following IRAP inhibitor treatment. In the reversal model, aged WT mice were treated with either saline, IRAP inhibitor (HFI-419 at 500 ng/kg/min; compound 1 at 500 ng/kg/min; compound 2 at 50 ng/kg/min) or HFI-vehicle (1 DMSO: 3 HBC) for 4 weeks. • E) Prevention of ischemic-reperfusion injury in isolated hearts taken from aged global IRAP knockout mice and aged IRAP inhibitor (HFI-419 at 500 ng/kg/min; s.c.) treated WT mice compared to age-matched vehicle-treated (1 DMSO:3 HBC; s.c.) WT controls. • F) Phenotypic characterization of cardiac function using echocardiography in the aged global IRAP knockout mice compared to aged and young WT mice. • G) Phenotypic characterization of liver steatosis in IRAP knockout mice in a high fat diet (HFD) model. • H) Reversal of the salt-induced fibrosis in the liver following IRAP inhibitor treatment.
To measure collagen deposition, frozen sections of heart, kidney or aorta (all 5 μm thickness) were air dried for 10 minutes and were brought through 3 times xylene (2 minutes each), and 3 times absolute alcohol washes before being rinsed in tap H2O for 30 seconds. Staining with an optimal concentration of picrosirius red (in this instance 0.05% picrosirius red diluted in saturated picric acid) was performed and left for an hour. Sections were then rinsed in water and differentiated in 0.01 M HCl for 2 minutes, followed by dehydration via 3 times absolute alcohol washes. Then, slides were brought through 3 times xylene washes before being cover slipped according to standard histological techniques using DPX as the mounting medium. Images were taken under ×20 magnification, using bright field (Olympus, BX51) and circularized polarized light microscopy (DM IRB, Leica) while percentage of positive interstitial collagen staining per total field of view was quantified using ImageJ 1.46 software (Java, NIH), and averaged out from a total of eight views as the final percentage collagen content in a particular animal.
Immunostaining was performed on either 5 μm thick transverse frozen heart sections or 5 μm thick frozen thoracic aortic. These sections were air dried and fixed in ice-cold acetone for approximately 15 minutes before washing with 0.01M PBS buffer (3×10 minutes). Sections were then incubated with 10% goat serum in 0.01M PBS for 30 minutes to reduce non-specific binding. If the primary antibody is raised in goat, this pre-blocked medium is substituted with 5% BSA in PBS and Triton-X. Next, blocking buffers were removed and the primary antibody to respective markers were applied overnight at room temperature based on the following dilution and origin of the antibodies: IRAP (1:500, in-house), α-SMA (1:500, Abcam), Vimentin (1:500, Santa Cruz), P-IκBα (1:200, Cell Signalling), F4/80 macrophage (1:100, Serotec), MCP-1 (1:100, Santa Cruz), VWF (1:500, abcam). […]

[2] = test system: isolated hearts from aged WT mice; test: Ischemic-reperfusion injury in isolated Langendorff hearts from chronically treated aged WT mice; assay type: in vivo, mouse
Description: as §1
Mice were injected with heparin (500 IU) 20 min before death by cervical dislocation. The heart was rapidly excised and immersed in ice-cold physiological saline solution (PSS). Under a dissecting microscope, the heart and aortic arch were cleared of loose tissue, the pulmonary vein perforated to permit free perfusion of the heart and the heart was mounted on a Langendorff apparatus (ML870B2, ADInstruments, Bella Vista, NSW, Australia) via a 20 gauge needle. The heart was continuously perfused with pre-warmed PSS containing (mM): NaCl 118; KCl 4.7; NaHCO3 25; glucose 11; KH2PO4 1.2; MgSO4 1.2; CaCl2) 1.2 mM and gassed with O2 95% and CO2 5% (carbogen) at 37° C. Prior to use, the PSS was filtered through a 0.22 μm cellulose acetate filter (Millipore). The heart perfusion chamber was surrounded by thermostatically controlled water jacket system that maintained the temperature at 37° C. A fine, 200 μm cannula was present in the PSS line for drug delivery (1:10 drug dilution and with a time lag of 1 min to the heart). A Millar pressure cathether (Millar instruments Inc.) was introduced into the left ventricle via a puncture at the junction of the left atrium and ventricle, and connected to a Power lab system (ADInstruments). […] Left ventricular developed pressure (LVDP); end diastolic pressure (EDP), heart rate (HR), left ventricular contractility (+dP/dt) and left ventricular relaxation (−dP/dt) and coronary flow were recorded continuously.
Ischemia was induced by halting perfusion of the heart for 40 min. […] Left ventricular developed pressure (LVDP), end diastolic pressure (EDP) and contractility (±dP/dt) were recorded during the 60 min. […]

[3] = Ang II + HFI-419, 4 weeks, FIG. 4
[4] = Ang II + HFI-419, 4 weeks, immunofluorescence, FIG. 3

SMILES: CCOC(=O)C1=C(NC(C)=O)Oc2cc(O)ccc2C1c1cccnc1 (stereo not drawn) [HFI-419]
- Ang II-induced vascular fibrosis (aortic collagen, picrosirius red) ([1]; Ang II 800 ng/kg/min + HFI-419 500 ng/kg/min, 4 weeks, FIG. 3): prevented
- ICAM-1 expression in aorta [1, 3]: reductions
- MCP-1 expression in aorta [1, 3]: reductions
- P-IκBα (marker for NFκB activation) expression in aorta [1, 3]: reductions
- VCAM-1 expression in aorta [1, 3]: reductions
- TGF-β1 expression in aorta [1, 4]: decreased
- α-SMA expression in aorta [1, 4]: decreased
- reduction in infarct area compared to the aged WT control ([2]; 40 min ischemia / 60 min reperfusion, aged WT mice treated with HFI-419 for 4 weeks, FIG. 20a): ~50%
- recovery of LVDP in the first 10 minutes of reperfusion ([2]; aged WT mice, HFI-419 4 weeks): did not affect
- recovery of LVDP in latter stages of reperfusion ([2]; evident from 20 min of reperfusion, aged WT mice, HFI-419 4 weeks, FIG. 20b): significant improvement
- recovery of LV±dP/dt in latter stages of reperfusion ([2]; evident from 20 min of reperfusion, aged WT mice, HFI-419 4 weeks, FIG. 20c,d): significant improvement
- HR, LVDP or LVEDP at baseline ([2]; pre-ischemic baseline, aged WT vehicle vs HFI-419 treated): no difference
